Laboratory results as given in patent US11180462B2, “Microbiocidal oxadiazole derivatives” (SYNGENTA PARTICIPATIONS AG, priority 2015, dated 2021).

Legend:
[1] = tested on: Glomerella lagenarium (Colletotrichum lagenarium); assay: Fungicidal activity against Glomerella lagenarium (Colletotrichum lagenarium) liquid culture / cucumber / preventative (anthracnose); assay type: cell-based; details: Colletotrichum orbiculare; 20 ppm in the applied formulation; liquid culture (PDB), growth inhibition measured photometrically after 3 to 4 days; compared to untreated control; read-out: disease control
Summary of the method: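 Percent activity against the untreated check was derived from photometric growth measurements made 2 to 7 days after conidia in potato dextrose broth were combined with compound at 20 ppm. Cultures were kept dark at 24 °C and 96% humidity.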

[2] = tested on: Puccinia recondita f. Sp. Tritici; assay: Fungicidal activity against Puccinia recondita f. sp. tritici / wheat / leaf disc curative (brown rust); assay type: in vivo; details: foliar, 24 h, 200 ppm in the applied formulation, wheat leaf segments, curative (applied 1 day after inoculation), compared to untreated control leaf disks, read-out: disease control
Summary of the method: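 Curative test on wheat leaf segments (cv. Kanzler) on agar, inoculated with spore suspension and held dark at 19° C, 75% RH; formulated compound in water applied 1 day after inoculation. Incubated at 19° C, 75% RH, 12 h light/12 h dark; percent disease control versus untreated scored 6 to 8 days after application.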

[3] = tested on: Puccinia recondita f. Sp. Tritici; assay: Fungicidal activity against Puccinia recondita f. sp. tritici / wheat / leaf disc preventative (brown rust); assay type: in vivo; details: foliar, 200 ppm in the applied formulation, wheat leaf segments, preventative, compared to untreated control leaf disks, read-out: disease control
Summary of the method: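 200 ppm spray on wheat cv. Kanzler leaf segments; spore inoculation +1 day; 19° C., 75% rh, 12 h/12 h light cycle; single rating of % control vs untreated at 7 to 9 days.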

Phakopsora Pachyrhizi = assay: Fungicidal activity against Phakopsora pachyrhizi / soybean / leaf disc preventative (Asian soybean rust); assay type: in vivo; details: foliar, 200 ppm in the applied formulation, soybean leaf disks, compared to untreated control leaf disks, read-out: disease control
Summary of the method: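 Scored 12 to 14 days post-application as percent control relative to untreated check discs, rust spores were sprayed under the disc one day after compound treatment. Incubation: 20°C, 75% rh, first 24–36 h in darkness, then 12 h daily light; discs kept on water agar.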

C#CCCC(=O)N(Cc1ccc(-c2noc(C(F)(F)F)n2)cc1)OC [Compound 1.11, N-methoxy-N-[[4-[5-(trifluoromethyl)-1,2,4-oxadiazol-3-yl]phenyl]methyl]-pent-4-ynamide]
≥ 80%: inhibition of growth at 20 ppm [1] | pest or weed control at 200 ppm [2] | pest or weed control at 200 ppm [3] | pest or weed control at 200 ppm (Phakopsora Pachyrhizi)

CC(C)N(Cc1ccc(-c2noc(C(F)(F)F)n2)cc1)C(=O)C1(C)CC1 [Compound 1.677, N-isopropyl-1-methyl-N-[[4-[5-(trifluoromethyl)-1,2,4-oxadiazol-3-yl]phenyl]methyl]-cyclopropane-carboxamide]
≥ 80%: inhibition of growth at 20 ppm [1] | pest or weed control at 200 ppm [2] | pest or weed control at 200 ppm [3] | pest or weed control at 200 ppm (Phakopsora Pachyrhizi)

CCCC(=O)N(Cc1ccc(-c2noc(C(F)(F)F)n2)cc1)OC [Compound 1.24, N-methoxy-N-[[4-[5-(trifluoromethyl)-1,2,4-oxadiazol-3-yl]phenyl]methyl]-butanamide]
≥ 80%: inhibition of growth at 20 ppm [1] | pest or weed control at 200 ppm [2] | pest or weed control at 200 ppm [3] | pest or weed control at 200 ppm (Phakopsora Pachyrhizi)

CCN(C)C(=O)N(Cc1ccc(-c2noc(C(F)(F)F)n2)cc1)OC [Compound 3.17, 1-ethyl-3-methoxy-1-methyl-3-[[4-[5-(trifluoromethyl)-1,2,4-oxadiazol-3-yl]phenyl]methyl]urea]
≥ 80%: inhibition of growth at 20 ppm [1] | pest or weed control at 200 ppm [2] | pest or weed control at 200 ppm [3] | pest or weed control at 200 ppm (Phakopsora Pachyrhizi)

C#CCN(Cc1ccc(-c2noc(C(F)(F)F)n2)cc1)C(=O)C1CCCC1 [Compound 1.168, N-prop-2-ynyl-N-[[4-[5-(trifluoromethyl)-1,2,4-oxadiazol-3-yl]phenyl]methyl]-cyclopentane-carboxamide]
≥ 80%: inhibition of growth at 20 ppm [1] | pest or weed control at 200 ppm [2] | pest or weed control at 200 ppm [3] | pest or weed control at 200 ppm (Phakopsora Pachyrhizi)

COC(C)C(=O)N(Cc1ccc(-c2noc(C(F)(F)F)n2)cc1)CC1CC1 (centres unmarked) [Compound 1.245, N-(cyclopropylmethyl)-2-methoxy-N-[[4-[5-(trifluoromethyl)-1,2,4-oxadiazol-3-yl]phenyl]methyl]-propanamide]
≥ 80%: inhibition of growth at 20 ppm [1] | pest or weed control at 200 ppm [2] | pest or weed control at 200 ppm [3] | pest or weed control at 200 ppm (Phakopsora Pachyrhizi)

CCN(Cc1ccc(-c2noc(C(F)(F)F)n2)cc1)C(=O)COC [Compound 1.499, N-ethyl-2-methoxy-N-[[4-[5-(trifluoromethyl)-1,2,4-oxadiazol-3-yl]phenyl]methyl]-acetamide]
≥ 80%: inhibition of growth at 20 ppm [1] | pest or weed control at 200 ppm [2] | pest or weed control at 200 ppm [3] | pest or weed control at 200 ppm (Phakopsora Pachyrhizi)

CCON(Cc1ccc(-c2noc(C(F)(F)F)n2)cc1)C(=O)C1(C)CC1 [Compound 1.621, N-ethoxy-1-methyl-N-[[4-[5-(trifluoromethyl)-1,2,4-oxadiazol-3-yl]phenyl]methyl]-cyclopropane-carboxamide]
≥ 80%: inhibition of growth at 20 ppm [1] | pest or weed control at 200 ppm [2] | pest or weed control at 200 ppm [3] | pest or weed control at 200 ppm (Phakopsora Pachyrhizi)

COCC(=O)N(Cc1ccc(-c2noc(C(F)(F)F)n2)cc1)C1COC1 [Compound 1.613, 2-methoxy-N-(oxetan-3-yl)-N-[[4-[5-(trifluoromelhyl)-1,2,4-oxadiazol-3-yl]phenyl]methyl]-acetamide]
≥ 80%: inhibition of growth at 20 ppm [1] | pest or weed control at 200 ppm [2] | pest or weed control at 200 ppm [3] | pest or weed control at 200 ppm (Phakopsora Pachyrhizi)

O=C(Cc1ccccc1)N(Cc1ccc(-c2noc(C(F)(F)F)n2)cc1)C1CC1 [Compound 1.121, N-cyclopropyl-2-phenyl-N-[[4-[5-(trifluoromethyl)-1,2,4-oxadiazol-3-yl]phenyl]methyl]-acetamide]
≥ 80%: inhibition of growth at 20 ppm [1] | pest or weed control at 200 ppm [2] | pest or weed control at 200 ppm [3] | pest or weed control at 200 ppm (Phakopsora Pachyrhizi)

CON(Cc1ccc(-c2noc(C(F)(F)F)n2)cc1)C(=O)N(C)C [Compound 3.5, 1-methoxy-3,3-dimethyl-1-[[4-[5-(trifluoromethyl)-1,2,4-oxadiazol-3-yl]phenyl]methyl]urea]
≥ 80%: inhibition of growth at 20 ppm [1] | pest or weed control at 200 ppm [2] | pest or weed control at 200 ppm [3] | pest or weed control at 200 ppm (Phakopsora Pachyrhizi)

CCC(=O)N(Cc1ccc(-c2noc(C(F)(F)F)n2)cc1)Cc1ccco1 [Compound 1.457, N-(2-furylmethyl)-N-[[4-[5-(trifluoromethyl)-1,2,4-oxadiazol-3-yl]phenyl]methyl]-propanamide]
≥ 80%: inhibition of growth at 20 ppm [1] | pest or weed control at 200 ppm [2] | pest or weed control at 200 ppm [3] | pest or weed control at 200 ppm (Phakopsora Pachyrhizi)

CC1(C(=O)N(Cc2ccc(-c3noc(C(F)(F)F)n3)cc2)C2CC2)CC1 [Compound 1.118, N-cyclopropyl-1-methyl-N-[[4-[5-(trifluoromethyl)-1,2,4-oxadiazol-3-yl]phenyl]methyl]-cyclopropane-carboxamide]
≥ 80%: inhibition of growth at 20 ppm [1] | pest or weed control at 200 ppm [2] | pest or weed control at 200 ppm [3] | pest or weed control at 200 ppm (Phakopsora Pachyrhizi)

CN(Cc1ccc(-c2noc(C(F)(F)F)n2)cc1)C(=O)C(C)(C)O [Compound 1.781, 2-hydroxy-N,2-dimethyl-N-[[4-[5-(trifluoromethyl)-1,2,4-oxadiazol-3-yl]phenyl]methyl]-propanamide]
≥ 80%: inhibition of growth at 20 ppm [1] | pest or weed control at 200 ppm [2] | pest or weed control at 200 ppm [3] | pest or weed control at 200 ppm (Phakopsora Pachyrhizi)

CCCN(Cc1ccc(-c2noc(C(F)(F)F)n2)cc1)C(=O)C(CC)COC (centres unmarked) [Compound 1.661, 2-(methoxymethyl)-N-propyl-N-[[4-[5-(trifluoromethyl)-1,2,4-oxadiazol-3-yl]phenyl]methyl]-butanamide]
≥ 80%: inhibition of growth at 20 ppm [1] | pest or weed control at 200 ppm [2] | pest or weed control at 200 ppm [3] | pest or weed control at 200 ppm (Phakopsora Pachyrhizi)

COCCCC(=O)OCCN(Cc1ccc(-c2noc(C(F)(F)F)n2)cc1)C(=O)CCCOC [Compound 1.725, 2-[4-methoxybutanoyl-[[4-[5-(trifluoromethyl)-1,2,4-oxadiazol-3-yl]phenyl]methyl]-amino]ethyl 4-methoxybutanoate]
≥ 80%: inhibition of growth at 20 ppm [1] | pest or weed control at 200 ppm [2] | pest or weed control at 200 ppm [3] | pest or weed control at 200 ppm (Phakopsora Pachyrhizi)

COCCN(Cc1ccc(-c2noc(C(F)(F)F)n2)cc1)C(=O)C1(C)COC1 [Compound 1.351, N-(2-methoxyethyl)-3-methyl-N-[[4-[5-(trifluoromethyl)-1,2,4-oxadiazol-3-yl]phenyl]methyl]-oxetane-3-carboxamide]
≥ 80%: inhibition of growth at 20 ppm [1] | pest or weed control at 200 ppm [2] | pest or weed control at 200 ppm [3] | pest or weed control at 200 ppm (Phakopsora Pachyrhizi)

CCC(=O)ON(Cc1ccc(-c2noc(C(F)(F)F)n2)cc1)C(=O)CC [Compound 1.760, [propanoyl-[[4-[5-(trifluoromethyl)-1,2,4-oxadiazol-3-yl)phenyl]methyl]-amino] propanoate]
≥ 80%: inhibition of growth at 20 ppm [1] | pest or weed control at 200 ppm [2] | pest or weed control at 200 ppm [3] | pest or weed control at 200 ppm (Phakopsora Pachyrhizi)

CCN(Cc1ccc(-c2noc(C(F)(F)F)n2)cc1)C(=O)C1CC1C (centres unmarked) [Compound 1.500, N-ethyl-2-methyl-N-[[4-[5-(trifluoromethyl)-1,2,4-oxadiazol-3-yl]phenyl]methyl]-cyclopropane-carboxamide]
≥ 80%: inhibition of growth at 20 ppm [1] | pest or weed control at 200 ppm [2] | pest or weed control at 200 ppm [3] | pest or weed control at 200 ppm (Phakopsora Pachyrhizi)

CCC(=O)N(CCO)Cc1ccc(-c2noc(C(F)(F)F)n2)cc1 [Compound 1.591, N-(2-hydroxyethyl)-N-[[4-[5-(trifiuoromethyl)-1,2,4-oxadiazol-3-yl]phenyl]methyl]-propanamide]
≥ 80%: inhibition of growth at 20 ppm [1] | pest or weed control at 200 ppm [2] | pest or weed control at 200 ppm [3] | pest or weed control at 200 ppm (Phakopsora Pachyrhizi)

CON(Cc1ccc(-c2noc(C(F)(F)F)n2)cc1)C(=O)CC(C)(C)C [Compound 1.41, N-methoxy-3,3-dimethyl-N-[[4-[5-(trifluoromethyl)-1,2,4-oxadiazol-3-yl]phenyl]methyl]-butanamide]
≥ 80%: inhibition of growth at 20 ppm [1] | pest or weed control at 200 ppm [2] | pest or weed control at 200 ppm [3] | pest or weed control at 200 ppm (Phakopsora Pachyrhizi)

C=CCN(Cc1ccc(-c2noc(C(F)(F)F)n2)cc1)C(=O)C1CCC1 [Compound 1.478, N-allyl-N-[[4-[5-(trifluoromethyl)-1,2,4-oxadiazol-3-yl]phenyl]methyl]-cyclobutane-carboxamide]
≥ 80%: inhibition of growth at 20 ppm [1] | pest or weed control at 200 ppm [2] | pest or weed control at 200 ppm [3] | pest or weed control at 200 ppm (Phakopsora Pachyrhizi)

CON(Cc1ccc(-c2noc(C(F)(F)F)n2)cc1)C(=O)C1CCCC1 [Compound 1.27, N-methoxy-N-[[4-[5-(trifluoromethyl)-1,2,4-oxadiazol-3-yl]phenyl]methyl]-cyclopentane-carboxamide]
≥ 80%: inhibition of growth at 20 ppm [1] | pest or weed control at 200 ppm [2] | pest or weed control at 200 ppm [3] | pest or weed control at 200 ppm (Phakopsora Pachyrhizi)
